The nature of data set [1]: Pharmacokinetics assay in rats after intragastrical administration. The class given is in vivo, SD rats. Particulars: Sprague-Dawley, rat, plasma, po, 30 mg/kg, intragastric, male rats; for Vd/F: read-out: Apparent distribution volume Vz/F; for AUC: read-out: Area under curve AUC; for CL/F: read-out: Clearance CLz/F; for half-life: read-out: Half-life T1/2 (converted); for Cmax: read-out: Plasma concentration Cmax; for MRT: read-out: Residence time MRT. The gist of the method:
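Fasted male SD rats (3 per compound) received 30.0 mg/kg by gavage […] in 2.5% DMSO/97.5% of 10% solutol HS-15. Orbital blood was taken pre-dose and 0.5-24 h; plasma was acetonitrile-precipitated with camptothecin internal standard and quantified by LC/MS/MS.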

For the next data set, the target named is OTR (Rattus norvegicus (Rat), UniProt P70536). Put plainly: Oxytocin-induced rat uterine contraction model. It is filed as in vivo. The following applies: female SD rats, 1 μg/kg OT i.v. How it is done: The efficacy of OTR inhibitors (compound 2-10mpk, compound 2-30mpk and compound 2-100mpk) on oxytocin (OT)-induced rat uterine contraction model was evaluated by establishing a rat uterine contraction model.
Chain of OTR (P70536 whole entry): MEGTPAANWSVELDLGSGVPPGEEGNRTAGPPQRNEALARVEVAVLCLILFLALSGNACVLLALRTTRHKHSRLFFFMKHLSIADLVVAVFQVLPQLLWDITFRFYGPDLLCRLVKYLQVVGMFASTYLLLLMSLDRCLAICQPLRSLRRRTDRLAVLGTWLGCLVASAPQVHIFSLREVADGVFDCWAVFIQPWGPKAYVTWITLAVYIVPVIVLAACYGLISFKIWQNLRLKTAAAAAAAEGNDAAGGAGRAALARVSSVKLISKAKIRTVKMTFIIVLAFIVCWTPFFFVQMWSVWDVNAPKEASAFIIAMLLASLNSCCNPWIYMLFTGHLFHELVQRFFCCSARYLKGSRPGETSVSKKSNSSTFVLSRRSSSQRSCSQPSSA
Compound 2-100mpk: 221.0 mg of compound 2 was weighed, added with 5.40 ml of Cremophor RH40, 2.16 ml of Masine 35-1, 3.24 ml of polyethylene glycol 400 (PEG400) and 1.20 ml of ethanol respectively, and mixed well by ultrasonic vibration;
Compound 2-30mpk: 54.2 mg of compound 2 was weighed, added with 4.50 ml of Cremophor RH40, 1.80 ml of Masine 35-1, 2.70 ml of polyethylene glycol 400 (PEG400) and 1.00 ml of ethanol respectively, and mixed well by ultrasonic vibration;
Compound 2-10mpk: 1 ml of compound 2-100mpk solution was added with 9 ml of solvent (45% of Cremophor RH40, 18% of Masine 35-1, 27% of PEG400 and 10% of ethanol), and mixed well. […]
After completion of the experiment, the area under curve (AUC) of the uterine contraction pressure 5 minutes before and after the administration of the inducing agent was calculated respectively. The efficacy of the test compound was evaluated by calculating the ratio of the difference value in AUC before and after induction to the AUC before induction, and comparing with the difference value of the ratio after administration of the test compound. ΔAUC ratio=(AUC0−AUCT)/AUC0; […]

We go through two compounds from patent publication US10889569B2, “Condensed ring group azacyclobutyl triazole derivative, preparation method therefor and use thereof in medicine” (Jiangsu Hengrui Medicine Co., Ltd., priority 2016, dated 2021).

For orientation: AUC means concentration integrated over time. As a reminder, the MRT is a mean duration of stay, worked out from the concentration-time curve. For `COCc1nnc(N2CC(c3cccc4cc(F)ccc34)C2)n1-c1ccc(OC)nc1` [Example 2, 5-(3-(3-(6-Fluoronaphthalen-1-yl)azetidin-1-yl)-5-(methoxymethyl)-4H-1,2,4-triazol-4-yl)-2-methoxypyridine], in data set [1], the Vd/F came out at 5.29 ± 3.44 L/kg, the AUC came out at 8580 ± 3560 ng·h/mL, the CL/F amounted to 63.8 ± 26.5 mL/min/kg and the half-life was 0.91 ± 0.25 h. In data set [1], the Cmax worked out at 3930 ± 3030 ng/mL and the MRT came out at 2.46 ± 1.44 h. Moreover, the “Efficacy on OT-induced uterine contraction vs solvent control group” value on OTR (30mpk p.o.) is given as “can effectively block the downstream function (uterine contraction) of oxytocin receptors mediated by oxytocin”. In addition, the “Efficacy on OT-induced uterine contraction vs solvent control group” value on OTR (100mpk p.o.) was “can effectively block the downstream function (uterine contraction) of oxytocin receptors mediated by oxytocin”.

Turning to `COCc1nnc(N2CC(n3cc(C)c4cc(F)ccc43)C2)n1-c1ccc(OC)nc1` [Example 17, 5-Fluoro-1-(1-(5-(methoxymethyl)-4-(6-methoxypyridin-3-yl)-4H-1,2,4-triazol-3-yl)azetidin-3-yl)-3-methyl-1H-indole], in data set [1], the Vd/F turned out to be 13.7 ± 3.83 L/kg, the exposure (AUC) was 11200 ± 4390 ng·h/mL, the CL/F stood at 48 ± 19 mL/min/kg and the half-life was 3.35 ± 0.399 h. In data set [1], the Cmax amounted to 2020 ± 580 ng/mL and the MRT came out at 5.08 ± 0.552 h.
